The text below walks through data of paper PMC12155096 (International Journal of Molecular Sciences, 2025).

The target of series [1] is CYP3A4 (Homo sapiens, UniProt P08684).
Series [2] deals with human CYP2C19 (Homo sapiens, UniProt P33261).
The target in series [3] is human CYP2C9 (Homo sapiens, UniProt P11712).
The target of series [4] is T1, human CYP1A2 (Homo sapiens, UniProt P05177).
T1 sequence (P05177 1-516): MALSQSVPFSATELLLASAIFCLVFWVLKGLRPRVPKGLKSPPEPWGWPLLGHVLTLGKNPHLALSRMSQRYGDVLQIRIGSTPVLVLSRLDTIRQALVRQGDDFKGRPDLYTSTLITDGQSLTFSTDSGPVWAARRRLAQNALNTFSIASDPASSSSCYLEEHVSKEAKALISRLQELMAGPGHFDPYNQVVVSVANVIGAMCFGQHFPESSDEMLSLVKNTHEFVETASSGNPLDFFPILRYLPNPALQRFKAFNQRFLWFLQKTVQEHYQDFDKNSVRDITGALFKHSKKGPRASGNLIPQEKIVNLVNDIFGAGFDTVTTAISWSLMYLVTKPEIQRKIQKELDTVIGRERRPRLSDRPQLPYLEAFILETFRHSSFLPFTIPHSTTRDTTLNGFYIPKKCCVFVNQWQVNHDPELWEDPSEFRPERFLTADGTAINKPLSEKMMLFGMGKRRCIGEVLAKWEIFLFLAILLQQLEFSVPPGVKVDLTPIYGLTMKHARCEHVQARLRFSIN

Series [5] has as its target human CYP2D6 (Homo sapiens, UniProt P10635).

Chain of human CYP2C9 (P11712 whole entry): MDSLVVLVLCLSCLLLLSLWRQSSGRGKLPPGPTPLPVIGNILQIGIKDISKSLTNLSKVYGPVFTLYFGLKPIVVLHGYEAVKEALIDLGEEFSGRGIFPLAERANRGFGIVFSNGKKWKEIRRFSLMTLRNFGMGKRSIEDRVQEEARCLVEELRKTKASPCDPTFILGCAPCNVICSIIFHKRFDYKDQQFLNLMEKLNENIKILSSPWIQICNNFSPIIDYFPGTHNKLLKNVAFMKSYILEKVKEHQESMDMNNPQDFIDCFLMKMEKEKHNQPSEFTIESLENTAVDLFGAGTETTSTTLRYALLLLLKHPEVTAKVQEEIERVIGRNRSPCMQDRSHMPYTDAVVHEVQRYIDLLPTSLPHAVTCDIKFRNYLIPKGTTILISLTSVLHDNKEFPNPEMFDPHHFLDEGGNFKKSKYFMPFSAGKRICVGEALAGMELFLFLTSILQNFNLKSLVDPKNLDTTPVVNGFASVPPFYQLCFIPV
Chain of human CYP2C19 (P33261 whole entry): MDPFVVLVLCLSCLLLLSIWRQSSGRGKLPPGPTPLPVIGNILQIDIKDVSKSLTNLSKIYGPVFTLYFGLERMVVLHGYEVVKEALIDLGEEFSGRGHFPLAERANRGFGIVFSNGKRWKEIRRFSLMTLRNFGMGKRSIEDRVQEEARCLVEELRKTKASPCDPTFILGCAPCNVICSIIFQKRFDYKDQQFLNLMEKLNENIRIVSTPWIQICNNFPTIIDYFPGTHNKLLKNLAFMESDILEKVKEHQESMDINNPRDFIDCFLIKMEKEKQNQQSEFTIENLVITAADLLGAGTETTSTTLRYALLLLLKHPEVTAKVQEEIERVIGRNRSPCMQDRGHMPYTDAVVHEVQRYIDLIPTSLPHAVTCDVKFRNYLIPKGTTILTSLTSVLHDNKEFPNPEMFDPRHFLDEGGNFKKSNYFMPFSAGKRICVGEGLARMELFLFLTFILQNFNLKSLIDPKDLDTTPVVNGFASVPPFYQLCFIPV
Chain of human CYP2D6 (P10635 whole entry): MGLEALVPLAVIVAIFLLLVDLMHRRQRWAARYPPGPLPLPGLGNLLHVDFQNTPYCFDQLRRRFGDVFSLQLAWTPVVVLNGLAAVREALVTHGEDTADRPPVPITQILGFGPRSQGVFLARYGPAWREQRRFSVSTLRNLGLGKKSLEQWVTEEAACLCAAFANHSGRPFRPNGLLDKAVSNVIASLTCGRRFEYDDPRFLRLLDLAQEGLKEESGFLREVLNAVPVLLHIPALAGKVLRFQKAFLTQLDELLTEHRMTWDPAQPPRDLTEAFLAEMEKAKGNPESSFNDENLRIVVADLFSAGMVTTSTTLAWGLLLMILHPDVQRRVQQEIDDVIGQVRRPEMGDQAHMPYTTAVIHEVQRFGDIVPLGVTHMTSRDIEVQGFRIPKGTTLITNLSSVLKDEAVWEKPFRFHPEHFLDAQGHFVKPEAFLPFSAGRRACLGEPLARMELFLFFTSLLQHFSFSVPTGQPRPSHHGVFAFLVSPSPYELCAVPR
Chain of CYP3A4 (P08684 whole entry): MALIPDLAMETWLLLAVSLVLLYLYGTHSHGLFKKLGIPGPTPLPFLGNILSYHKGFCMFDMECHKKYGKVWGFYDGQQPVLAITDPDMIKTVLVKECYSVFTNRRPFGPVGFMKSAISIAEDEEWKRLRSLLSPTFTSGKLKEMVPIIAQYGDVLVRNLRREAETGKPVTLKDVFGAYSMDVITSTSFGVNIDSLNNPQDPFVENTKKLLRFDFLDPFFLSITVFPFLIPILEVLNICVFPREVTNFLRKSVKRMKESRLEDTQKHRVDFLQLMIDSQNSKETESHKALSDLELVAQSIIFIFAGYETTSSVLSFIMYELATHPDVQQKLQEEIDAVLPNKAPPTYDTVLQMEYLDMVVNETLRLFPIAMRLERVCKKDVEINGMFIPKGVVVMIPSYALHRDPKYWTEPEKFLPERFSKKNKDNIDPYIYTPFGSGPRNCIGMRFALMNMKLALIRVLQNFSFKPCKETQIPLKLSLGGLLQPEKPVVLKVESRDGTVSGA

Turning to `CCN(CC)c1ccc2c(C)cc(=O)oc2c1` [7-Diethylamino-4-methylcoumarin], the AC50 in series [1] stood at 32.4 µM; in series [2], 36 µM; in series [3] it was 4.6 µM; in series [4], 1.9 µM; in series [5], 58.5 µM.
On the same counts, the results for `NC(=O)Nc1nc2ccccc2[nH]1` [2-Benzimidazolylurea] are 47.5 µM, 47.2 µM, 60.5 µM, 47.2 µM and 34.2 µM.
On to `CCC(=O)O[C@@H]1C=C2CC[C@@H]3[C@H](CC[C@]4(C)[C@@H](OC(=O)CC)CC[C@@H]34)C2CC1` (stereo partly shown) [Bolandiol dipropionate], for which the AC50 in series [1] stood at 10.6 µM; in series [3], 15.5 µM. Also, in series [2], the “CYP2C19 AC50 (half-maximal activity concentration)” value (shortened to “CYP2C19 AC50”) was “Inactive”. The “CYP1A2 AC50 (half-maximal activity concentration)” value (“CYP1A2 AC50” for short) in series [4] is listed as “Inconclusive inhibitor”. Moreover, the “CYP2D6 AC50 (half-maximal activity concentration)” value (from here on “CYP2D6 AC50”) in series [5] is on record as “Inactive”.
Consider `COC(=O)CCCCCCCC(=O)OC` [Dimethyl nonanedioate], for which the AC50 worked out at 58.1 µM in series [1] and 40.1 µM in series [4]. The “CYP2C19 AC50” value in series [2] was “Inconclusive inhibitor”. In addition, the “CYP2C9 AC50 (half-maximal activity concentration)” value (from here on “CYP2C9 AC50”) in series [3] is “Inconclusive inhibitor”. The “CYP2D6 AC50” value in series [5] is given as “Inconclusive inhibitor”.
`CC(C)COC(=O)C=Cc1ccccc1` [Isobutyl 3-phenylacrylate]: the AC50 worked out at 22.8 µM in series [1], 80 µM in series [2], 44 µM in series [3] and 17 µM in series [4]. Moreover, in series [5], the “CYP2D6 AC50” value is “Inactive”.
As for `CC1(C)[C@@H](O[C@H]2O[C@H](C(=O)O)[C@@H](O)[C@H](O)[C@H]2O[C@@H]2O[C@H](C(=O)O)[C@@H](O)[C@H](O)[C@H]2O)CC[C@]2(C)[C@H]3C(=O)C=C4[C@@H]5C[C@@](C)(C(=O)O)CC[C@]5(C)CC[C@@]4(C)[C@]3(C)CC[C@@H]12.N.O.O.O` [Ammonium glycyrrhizinate trihydrate], the activity in series [1] was half-maximal at 23.5 µM (AC50). Also, the “CYP2C19 AC50” value in series [2] is reported as “Inconclusive inhibitor”. In series [3], the “CYP2C9 AC50” value is listed as “Inactive”. Moreover, the “CYP1A2 AC50” value in series [4] was “Inconclusive inhibitor”. In series [5], the “CYP2D6 AC50” value is “Inactive”.
On to `CC(=O)OC(C(=O)c1ccccc1)c1ccccc1` (stereo not shown) [Benzoin acetate], for which the AC50 in series [1] was 34.5 µM; in series [2], 10.1 µM; in series [3] it was 33.2 µM; in series [4], 46.5 µM; in series [5], 59.5 µM.
For the compound `CCS(=O)(=O)c1ccc(OC)c(C(=O)OC)c1` [Methyl 5-(ethylsulfonyl)-o-anisate], the “CYP3A4 AC50 (half-maximal activity concentration)” value in series [1] was “Inactive”. Moreover, the “CYP2C19 AC50” value in series [2] was “Inconclusive inhibitor”. The activity in series [3] was half-maximal at 24.6 µM (AC50). Also, in series [4], the “CYP1A2 AC50” value is reported as “Inactive”. The “CYP2D6 AC50” value in series [5] is “Inactive”.
As for `CCCCCCCCc1ccc(S(=O)(=O)[O-])cc1.[Na+]` [Sodium 4-octylbenzenesulfonate], the values for the AC50 in series [1] and in series [3] were 63.9 µM and 76.8 µM, respectively. Moreover, the “CYP2C19 AC50” value in series [2] is “Inactive”. Moreover, in series [4], the “CYP1A2 AC50” value is “Inactive”. Moreover, the “CYP2D6 AC50” value in series [5] is “Inactive”.
As for `C=C(C)C(=O)OCCOc1ccccc1`, the AC50 came out at 19.8 µM in series [1], 28.6 µM in series [2], 38.6 µM in series [3] and 24.5 µM in series [4]. In addition, the “CYP2D6 AC50” value in series [5] was “Inactive”.
Turning to `CCCCCCCCCCCCCC[N+](C)(C)Cc1ccccc1.O.O.[Cl-]`, the concentration at half-maximal activity (AC50) was determined as 11.3 µM in series [1], 40.7 µM in series [3] and 2.01 µM in series [5]. The “CYP2C19 AC50” value in series [2] is reported as “Inactive”. In addition, in series [4], the “CYP1A2 AC50” value is given as “Inactive”.
As for `CN1CCC(Nc2ncc3ncnc(Nc4ccc(F)c(Cl)c4)c3n2)CC1.Cl.Cl` [Falnidamol dihydrochloride], the values for the AC50 in series [1] and in series [5] were 14.4 µM and 18.4 µM, respectively. In addition, the “CYP2C19 AC50” value in series [2] is recorded as “Inactive”. In series [3], the “CYP2C9 AC50” value is listed as “Inactive”. For the same compound, the “CYP1A2 AC50” value in series [4] is reported as “Inactive”.
`O=C(Cl)c1ccc(F)c(Cl)c1` [3-Chloro-4-fluorobenzoyl chloride] came in with an AC50 in series [1] of 55.5 µM. In addition, the “CYP2C19 AC50” value in series [2] is “Inconclusive inhibitor”. Also, the “CYP2C9 AC50” value in series [3] is “Inactive”. In addition, the “CYP1A2 AC50” value in series [4] was “Inactive”. For the same compound, the “CYP2D6 AC50” value in series [5] is “Inconclusive inhibitor”.
`CC(C)(C)C1=CC(=O)C(C(C)(C)C)=CC1=O`: the AC50 was found to be 6.47 µM in series [1], 7.8 µM in series [2], 20.8 µM in series [3] and 16.1 µM in series [4]. In series [5], the “CYP2D6 AC50” value is listed as “Inconclusive inhibitor”.
Take `O=C(O)C1(C(=O)Nc2ccc(Cl)cc2Cl)CC1` [Cyclanilide]: the AC50 in series [1] was 55.5 µM; in series [3], 18.7 µM; in series [4], 60.6 µM; in series [5], 66.8 µM. In series [2], the “CYP2C19 AC50” value is on record as “Inconclusive inhibitor”.
On to `CCC(CC)Nc1ccc(C)c(C)c1` [N-(1-Ethylpropyl)-3,4-xylidine], for which the AC50 is 1.45 µM in series [1], 10.7 µM in series [2], 33.6 µM in series [3] and 11.6 µM in series [4]. Moreover, the “CYP2D6 AC50” value in series [5] was “Inconclusive inhibitor”.
In the case of `CCCOc1ccc2c(c1)CC[C@@H]1[C@@H]2CC[C@]2(C)[C@@H](OC)CC[C@@H]12` [Promestriene], the AC50 in series [1] stood at 9.46 µM; in series [4], 33.7 µM; in series [5], 21.5 µM. For the same compound, the “CYP2C19 AC50” value in series [2] was “Inconclusive inhibitor”. The “CYP2C9 AC50” value in series [3] is given as “Inconclusive inhibitor”.
For `C[C@]12CC[C@H]3[C@@H](CCC4=CC(=O)CC[C@@]43C)[C@@H]1CC[C@@H]2C(=O)O` [Etienic acid], the values for the AC50 in series [1] and in series [3] were 20.8 µM and 21.2 µM, respectively. The “CYP2C19 AC50” value in series [2] is “Inactive”. Moreover, the “CYP1A2 AC50” value in series [4] is recorded as “Inactive”. Besides, the “CYP2D6 AC50” value in series [5] is reported as “Inactive”.
For `CCC(=O)Oc1ccc2c(c1)CC[C@@H]1[C@@H]2CC[C@@]2(C)[C@H]1C[C@@H](OC(=O)CC)[C@@H]2OC(=O)CC` [Estriol tripropionate], the AC50 in series [1] worked out at 4.92 µM; in series [2] it was 29.9 µM; in series [3], 19.8 µM. Also, the “CYP1A2 AC50” value in series [4] is “Inconclusive inhibitor”. Besides, the “CYP2D6 AC50” value in series [5] is listed as “Inconclusive inhibitor”.
On to `CC(=O)O[C@H]1CC[C@@]2(C)C(=CC[C@@H]3[C@@H]2CC[C@]2(C)C(C(C)=O)=CC[C@@H]32)C1` [Dehydropregnenolone acetate], for which the AC50 in series [1] came out at 4.44 µM. The “CYP2C19 AC50” value in series [2] was “Inactive”. The “CYP2C9 AC50” value in series [3] is “Inactive”. For the same compound, the “CYP1A2 AC50” value in series [4] is reported as “Inactive”. Besides, the “CYP2D6 AC50” value in series [5] is “Inactive”.
On to `N.O=C(O)C(F)(F)C(F)(F)C(F)(F)C(F)(F)C(F)(F)C(F)(F)C(F)(F)F` [PFOA, ammonium salt], for which the AC50 amounted to 76.8 µM in series [1], 60.8 µM in series [2] and 1.78 µM in series [3]. Also, the “CYP1A2 AC50” value in series [4] is recorded as “Inactive”. Moreover, the “CYP2D6 AC50” value in series [5] is “Inactive”.
`Cc1cc(O)c(Cl)cc1C` [2-Chloro-4,5-dimethylphenol]: in series [1], the “CYP3A4 AC50 (half-maximal activity concentration)” value is “Inactive”. The AC50 in series [2] was 61.8 µM; in series [3] it was 34.3 µM; in series [4] it was 27.7 µM. The “CYP2D6 AC50” value in series [5] is “Inactive”.
For `N.N.O=C([O-])C1(C(=O)[O-])CCC1.[Pt+2]` [Carboplatin], the AC50 in series [1] was 31.3 µM; in series [2] it was 17.7 µM; in series [3], 9.46 µM; in series [4], 15.6 µM; in series [5], 28.7 µM.
`O=C(O)c1cc(C(=O)O)cc([N+](=O)[O-])c1` [5-Nitroisophthalic acid] returned an AC50 in series [1] of 5.59 µM. Moreover, in series [2], the “CYP2C19 AC50” value is “Inconclusive activator”. Also, in series [3], the “CYP2C9 AC50” value is on record as “Inactive”. For the same compound, the “CYP1A2 AC50” value in series [4] is “Inconclusive inhibitor”. The “CYP2D6 AC50” value in series [5] was “Inactive”.
As to Mancozeb, the AC50 in series [1] was 5.17 µM; in series [2], 4.72 µM; in series [3] it was 3.48 µM; in series [4] it was 14.9 µM. The “CYP2D6 AC50” value in series [5] is recorded as “Inconclusive inhibitor”.
Regarding `O=C(O)c1ccc(OCCCOc2ccc(C(=O)O)cc2)cc1` [1,3-Bis(4-carboxyphenoxy)propane], the AC50 in series [1] worked out at 26.4 µM; in series [5], 8.08 µM. Moreover, the “CYP2C19 AC50” value in series [2] is on record as “Inactive”. For the same compound, the “CYP2C9 AC50” value in series [3] is on record as “Inactive”. Moreover, the “CYP1A2 AC50” value in series [4] is reported as “Inactive”.
